# Like-named read-outs stand apart in the source and are kept apart here. Ends that are not written are not given here. Peptide text beside a SMILES is read from it.
# Key:
# [1] = system: LLCPK1-B64 cells or SaOS-2 cells; test: cAMP screen of substituted PTHrP(1-28) analogs (% parent); type: cell-based; conditions: parent PTHrP(1-28)NH
# Procedure, shortened: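 LLCPK1-B64 or SaOS-2 cells exposed to peptide analogs at 3×10^−9M with IBMX for 30 minutes at room temperature, then cAMP measured. Each analog's response expressed as percentage of that for parent PTHrP(1-28).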
# [2] = target: T1, human PTHR, G protein-coupled conformation (RG) (Homo sapiens, UniProt Q03431); test: Competition binding to RG conformation of hPTHR (COS-7 membranes, GαsND, 125I-[Aib1,3,M]PTH(1-15) tracer); conditions: for IC50: Table 2, read-out: RG binding affinity hPTHR IC50; for screen human PIR RG (% parent): parent PTHrP(1-28)NH
# T1 construct: expressed in transfected cells; host or cells: COS-7, transient (Fugene-6); membranes
# T1 sequence (Q03431 27-593): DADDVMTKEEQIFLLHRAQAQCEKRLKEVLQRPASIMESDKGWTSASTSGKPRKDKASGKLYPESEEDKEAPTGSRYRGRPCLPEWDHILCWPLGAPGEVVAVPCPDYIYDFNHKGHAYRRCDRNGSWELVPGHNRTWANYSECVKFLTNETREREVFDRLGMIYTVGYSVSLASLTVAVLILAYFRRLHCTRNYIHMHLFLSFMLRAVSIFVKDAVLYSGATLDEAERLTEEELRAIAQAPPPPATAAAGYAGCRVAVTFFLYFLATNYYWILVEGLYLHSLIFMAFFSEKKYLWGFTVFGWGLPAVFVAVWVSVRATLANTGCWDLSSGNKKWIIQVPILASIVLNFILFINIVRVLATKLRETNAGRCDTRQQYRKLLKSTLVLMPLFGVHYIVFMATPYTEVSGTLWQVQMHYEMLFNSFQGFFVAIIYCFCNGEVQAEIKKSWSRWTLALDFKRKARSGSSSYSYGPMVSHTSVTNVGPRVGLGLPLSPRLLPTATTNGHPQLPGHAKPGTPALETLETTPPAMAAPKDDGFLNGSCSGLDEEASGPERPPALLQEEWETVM
# [3] = system: MC3T3-E1 cells; test: cAMP in MC3T3-E1 cells, dose-response; type: cell-based
# Procedure: In the 1-30 scaffold, Gly, Ser, Leu, Asn, Gln, Trp, Glu, and Lys were substituted at position 29; Gly, Ser, Leu, Asn, Asp, Trp, and Lys were substituted at position 30; and Ser, Leu, Asn, Val, Trp, Glu, and Lys were substituted at position 31. […] These peptides were tested for cAMP activity in MC3T3-E1 cells.
# [4] = system: SaOS cells; test: cAMP production in SaOS cells, dose-response; type: cell-based
# [5] = target: T2, human PTHR, G protein-uncoupled conformation (R^0) (Homo sapiens, UniProt Q03431); test: Competition binding to R0 conformation of hPTHR (COS-7 membranes, GTPγS, 125I-PTH(1-34) tracer); conditions: for IC50: read-out: R^0 binding affinity hPTHR IC50; for screen human PIR R0 (% parent): parent PTHrP(1-28)NH
# T2 construct: expressed in transfected cells; host or cells: COS-7, transient (Fugene-6)
# T2 sequence (Q03431 27-593): T1 sequence (Q03431 27-593)
# Procedure, shortened: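 Membranes from hPTHR-transfected COS-7 cells (20-100 μg/mL protein) incubated 90 min with radioligand (~150,000 cpm/ml) and unlabeled ligands, then filtered. Specific binding expressed as % of binding without competitor.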
# [6] = target: T3, human PTH receptor (Homo sapiens, UniProt Q03431); test: cAMP in HRKRK-B7 cells EC50 (nM)
# T3 construct: expressed in transfected cells
# Excerpt: Table printed on a drawing sheet, Figure 25
# Head of the field: cAMP in HRKRK-B7 cells EC50 (nM)
# First copying reader's note: The column head prints the cell line as HRKRK-B7 while the title prints HKRK-B7.
# [7] = Calcemic action in normal rats (blood ionized calcium); type: in vivo; conditions: for calcemic action compared with control peptides, in words: normal and TPTX rats
# Procedure: Binding to the rat PTHR was also measured in vitro.
# Concentration of peptides in stock solution were adjusted by dilution with 25 mmol/L phosphate-citrate buffer/100 mmol/L NaCl/0.05% Tween 80 (pH. 5.0) (PC-buffer). All peptides were allowed to stand on ice immediately before administration.
# Female SD-IGS rat at 8 weeks of age (Charles River Japan, Inc.) were measured for their body weight. Blood was collected by tail vein into heparinized capillary tubes and measured for baseline levels of blood ionized calcium and pH using Ca^++/pH analyzer (Model 634/Bayer Medical Ltd.) to give the corrected level of ionized calcium at pH 7.4 for each sample. Rats received intravenous administration of each peptides at a dose of 1 ml/kg. Peptides were administered to groups of 6 rats each respectively. At 1, 2, 4, or 6 hours after administration, blood was collected by tail vein to monitor the time course of corrected blood ionized calcium levels. The time course of changes in corrected ionized calcium levels, compared to vehicle, and are expressed as means+/−standard error.
# [8] = Table 2, read-out: MC3T3-E1 cAMP EC50
# [9] = Table 3, read-out: dose-response cAMP in MC3T3-E1 (EC50)
# [10] = Table 2, read-out: SaOS camp EC50
# [11] = Table 3, read-out: dose-response cAMP in SaOS (EC50)
Molecule,IC50 [2] [nM],screen human PIR RG (% parent) [2] [% parent],"EC50 [3, 8] [nM]","EC50 [3, 9] [nM]","EC50 [4, 10] [nM]","EC50 [4, 11] [nM]","R0/RG selectivity ([5]; Table 2, hPTHR)",IC50 ([5]; Table 2) [nM],screen human PIR R0 (% parent) [5] [% parent],EC50 [6] [nM],screen cAMP (% parent) [1] [% parent],"calcemic action compared with control peptides, in words [7]","calcemic action (blood ionized calcium), in words ([7]; normal rats, i.v.)"
"CC[C@H](C)[C@H](NC(=O)[C@H](CCC(=O)O)NC(=O)[C@H](C)NC(=O)[C@@H](NC(=O)[C@H](Cc1c[nH]cn1)NC(=O)[C@@H](NC(=O)[C@H](CCC(=O)O)NC(=O)[C@H](C)NC(=O)[C@@H](NC(=O)[C@H](CC(C)C)NC(=O)[C@H](Cc1c[nH]cn1)NC(=O)[C@H](Cc1c[nH]cn1)NC(=O)[C@H](CC(C)C)NC(=O)[C@H](Cc1ccccc1)NC(=O)[C@H](Cc1ccccc1)NC(=O)[C@H](CCCNC(=N)N)NC(=O)[C@H](CCCNC(=N)N)NC(=O)[C@H](CCCNC(=N)N)NC(=O)[C@H](CCSC)NC(=O)[C@H](CO)NC(=O)[C@H](CC(N)=O)NC(=O)[C@H](CC(C)C)NC(=O)[C@H](Cc1c[nH]cn1)NC(=O)[C@H](CCCCN)NC(=O)CNC(=O)[C@H](CC(C)C)NC(=O)[C@H](CC(N)=O)NC(=O)[C@H](Cc1c[nH]cn1)NC(=O)[C@H](CCSC)NC(=O)[C@H](CC(C)C)NC(=O)[C@H](CCC(N)=O)NC(=O)[C@@H](NC(=O)[C@H](CCC(=O)O)NC(=O)[C@H](CO)NC(=O)[C@@H](NC(=O)[C@@H](N)CO)C(C)C)[C@@H](C)CC)[C@@H](C)CC)[C@@H](C)CC)[C@@H](C)O)C(=O)O [PTH(1-18)/PTHrP(19-36), hPTH(1-18)/PTHrP(19-36)] (H-SVSEIQLMHNLGKHLNSMRRRFFLHHLIAEIHTAEI-OH)",–,–,–,–,–,–,–,–,–,1.34,–,higher calcemic actions than did PTH(1-34),–
AVAEIQLMHQRGKSIQDLRRRFFLHHLIAEIHTAEI (AVAEIQLMHQRGKSIQDLRRRFFLHHLIAEIHTAEI-OH) [Mc-PTH(1-11)/PTHrP(15-36)],–,–,–,–,–,–,–,–,–,–,–,–,Prolonged calcemic effects
"CC[C@H](C)[C@H](NC(=O)[C@H](CCC(=O)O)NC(=O)[C@H](C)NC(=O)[C@@H](NC(=O)[C@H](Cc1c[nH]cn1)NC(=O)[C@@H](NC(=O)[C@H](CCC(=O)O)NC(=O)[C@H](C)NC(=O)[C@@H](NC(=O)[C@H](CC(C)C)NC(=O)[C@H](Cc1c[nH]cn1)NC(=O)[C@H](Cc1c[nH]cn1)NC(=O)[C@H](CC(C)C)NC(=O)[C@H](Cc1ccccc1)NC(=O)[C@H](Cc1ccccc1)NC(=O)[C@H](CCCNC(=N)N)NC(=O)[C@H](CCCNC(=N)N)NC(=O)[C@H](CCCNC(=N)N)NC(=O)[C@H](CC(C)C)NC(=O)[C@H](CC(=O)O)NC(=O)[C@H](CCC(N)=O)NC(=O)[C@@H](NC(=O)[C@H](Cc1c[nH]cn1)NC(=O)[C@H](CCCCN)NC(=O)CNC(=O)[C@H](CC(C)C)NC(=O)[C@H](CC(N)=O)NC(=O)[C@H](Cc1c[nH]cn1)NC(=O)[C@H](CCSC)NC(=O)[C@H](CC(C)C)NC(=O)[C@H](CCC(N)=O)NC(=O)[C@@H](NC(=O)[C@H](CCC(=O)O)NC(=O)[C@H](CO)NC(=O)[C@@H](NC(=O)[C@@H](N)CO)C(C)C)[C@@H](C)CC)[C@@H](C)CC)[C@@H](C)CC)[C@@H](C)CC)[C@@H](C)O)C(=O)O [PTH(1-14)/PTHrP(15-36), hPTH(1-14)/PTHrP(15-36)] (H-SVSEIQLMHNLGKHIQDLRRRFFLHHLIAEIHTAEI-OH)",–,–,–,–,–,–,–,–,–,1.35,–,higher calcemic actions than did PTH(1-34),–

# Now from value to molecule, other results behind:
IC50 [2] [nM],screen human PIR RG (% parent) [2] [% parent],"EC50 [3, 8] [nM]","EC50 [3, 9] [nM]","EC50 [4, 10] [nM]","EC50 [4, 11] [nM]","R0/RG selectivity ([5]; Table 2, hPTHR)",IC50 ([5]; Table 2) [nM],screen human PIR R0 (% parent) [5] [% parent],EC50 [6] [nM],Molecule,screen cAMP (% parent) [1] [% parent],"calcemic action compared with control peptides, in words [7]","calcemic action (blood ionized calcium), in words ([7]; normal rats, i.v.)"
0.1,193,0.091,0.091,0.024,0.024,18079,1810,178,–,"CC[C@H](C)[C@H](NC(=O)[C@H](CC(C)C)NC(=O)[C@H](CCCCN)NC(=O)[C@H](Cc1c[nH]cn1)NC(=O)[C@H](CC(C)C)NC(=O)[C@H](Cc1ccccc1)NC(=O)[C@H](C)NC(=O)[C@H](CCCNC(=N)N)NC(=O)[C@H](CCCNC(=N)N)NC(=O)[C@H](CCCNC(=N)N)NC(=O)[C@H](C)NC(=O)[C@H](CC(=O)O)NC(=O)[C@H](CCC(N)=O)NC(=O)[C@@H](NC(=O)[C@H](CO)NC(=O)[C@H](CCCCN)NC(=O)CNC(=O)[C@H](CCCCN)NC(=O)[C@H](CC(=O)O)NC(=O)[C@H](Cc1c[nH]cn1)NC(=O)[C@H](CC(C)C)NC(=O)[C@H](CC(C)C)NC(=O)[C@H](CCC(N)=O)NC(=O)[C@H](Cc1c[nH]cn1)NC(=O)[C@H](CCC(=O)O)NC(=O)[C@H](CO)NC(=O)[C@@H](NC(=O)[C@H](C)N)C(C)C)[C@@H](C)CC)C(N)=O [A18, 22, K26-PTHrP(1-28)NH, A18,22,K26-PTHrP(1-28)] (H-AVSEHQLLHDKGKSIQDARRRAFLHKLI-NH2; N-terminus assumed)",405,–,–
0.05,–,0.067,0.067,0.008,–,–,144,–,–,"CC[C@H](C)[C@H](NC(=O)[C@H](CC(C)C)NC(=O)[C@H](CCCCN)NC(=O)[C@H](CC(C)C)NC(=O)[C@H](CC(C)C)NC(=O)[C@H](Cc1ccccc1)NC(=O)[C@H](C)NC(=O)[C@H](CCCNC(=N)N)NC(=O)[C@H](CCCNC(=N)N)NC(=O)[C@H](CCCNC(=N)N)NC(=O)[C@H](C)NC(=O)[C@H](CC(=O)O)NC(=O)[C@H](CCC(N)=O)NC(=O)[C@@H](NC(=O)[C@H](CO)NC(=O)[C@H](CCCCN)NC(=O)CNC(=O)[C@H](CCCCN)NC(=O)[C@H](CC(=O)O)NC(=O)[C@H](Cc1c[nH]cn1)NC(=O)[C@H](CC(C)C)NC(=O)[C@H](CC(C)C)NC(=O)[C@H](CCC(N)=O)NC(=O)[C@H](Cc1c[nH]cn1)NC(=O)[C@H](CCC(=O)O)NC(=O)[C@H](CO)NC(=O)[C@@H](NC(=O)[C@H](C)N)C(C)C)[C@@H](C)CC)C(=O)N[C@@H](C)C(=O)N[C@@H](CCC(=O)O)C(N)=O [A18, 22, L25, K26-PTHrP(1-30)NH, A18,22,L25,K26-PTHrP(1-30)]",–,–,–
–,145,0.251,0.251,0.241,0.241,–,9240,68.8,–,"CC[C@H](C)[C@H](NC(=O)[C@H](CC(C)C)NC(=O)[C@H](CCCCN)NC(=O)[C@H](Cc1c[nH]cn1)NC(=O)[C@H](CC(C)C)NC(=O)[C@H](Cc1ccccc1)NC(=O)[C@H](C)NC(=O)[C@H](CCCNC(=N)N)NC(=O)[C@H](CCCNC(=N)N)NC(=O)[C@H](CCCNC(=N)N)NC(=O)[C@H](CCC(=O)O)NC(=O)[C@H](CC(=O)O)NC(=O)[C@H](CCC(N)=O)NC(=O)[C@@H](NC(=O)[C@H](CO)NC(=O)[C@H](CCCCN)NC(=O)CNC(=O)[C@H](CCCCN)NC(=O)[C@H](CC(=O)O)NC(=O)[C@H](Cc1c[nH]cn1)NC(=O)[C@H](CC(C)C)NC(=O)[C@H](CC(C)C)NC(=O)[C@H](CCC(N)=O)NC(=O)[C@H](Cc1c[nH]cn1)NC(=O)[C@H](CCC(=O)O)NC(=O)[C@H](CO)NC(=O)[C@@H](NC(=O)[C@H](C)N)C(C)C)[C@@H](C)CC)C(N)=O [E18, A22, K26-PTHrP(1-28)NH, E18,A22,K26-PTHrP(1-28)] (H-AVSEHQLLHDKGKSIQDERRRAFLHKLI-NH2; N-terminus assumed)",301,–,–

# Source: patent publication US9057727B2, “Screening methods using G-protein coupled receptors and related compositions” (The General Hospital Corporation, priority 2007, dated 2015)
